Entries after “also recorded” stand apart in the source; their conditions may differ.
Assays:
[1] = PAA demand/decay in WWTP secondary effluent (Equation 1 fit); type: physicochemical; conditions: for Decay (k, 1/min) / Demand (D, mg/L): PAA only disinfection
Protocol: (§1) In this study, secondary effluent samples were collected and treated with PAA to achieve residual concentration*contact time (CTs) of 2.5-50 mg·min/L. PAA tests were conducted in clean glass beakers (500 or 2000 mL), and mixed continuously using a magnetic stirrer (600 rpm). Measurements of PAA residuals were collected over time, and E. coli samples were collected following PAA quenching using sodium bisulfite. The four samples collected between September 22-24 were each treated with PAA (CO=5.0 mg/L) in order to estimate the demand/decay for each sample. […] The demand/decay kinetic parameters were recalculated using the experimental results from each inactivation experiment.
PAA residuals were fitted to a demand/decay curve using Equation 1. The PAA CT (mg·min/L) was determined by integrating the area under the demand/decay curve and is calculated using Equation 2. C=(C0−D)e^−kt [Equation 1] where, • C is the concentration of PAA (mg/L) at time t (min) • C0 is initial concentration of PAA (mg/L) • D is the instantaneous demand of PAA (mg/L) • k is the decay rate constant of PAA (1/min) • t is the contact time (min)

E. coli [2] = experiment: E. coli inactivation by PAA alone in WWTP secondary effluent (bench test); type: cell-based, Escherichia coli
Protocol: as §1
[formula] where, • CT is the integral PAA dose (concentration*contact time); mg·min/L (Santoro et al., 2015) PAA and UV Disinfection Kinetics
To develop an disinfection kinetic model, the concentration of viable for E. coli can be plotted against either PAA—CT dose or UV fluence and the data fitted using the double exponential inactivation model, described in Equation 3. […]
The E. coli inactivation kinetics by PAA was calculated for each sample by plotting the viable concentration of E. coli on a log scale (y-axis) against the PAA—CT dose (x-axis), and is shown in FIG. 11. […]

E. coli [3] = experiment: Combined UV and PAA disinfection tests on WWTP secondary effluent; type: cell-based, Escherichia coli
Source text: For the UV+PAA experiment, effluent was first irradiated to UV fluences of 10, 15 or 20 mJ/cm^2, then dosed with PAA as described above. For the PAA+UV experiment, effluent was first dosed with PAA as described above. After set durations, portions of the sample were removed, PAA quenched with sodium bisulfite, and then subjected to UV fluences of 10, 15 or 20 mJ/cm^2. For the simultaneous PAA+UV experiment, two different scenarios were investigated. The first involved dosing PAA at the onset of UV irradiation, irradiating for a set duration, and then removing the sample from UV exposure and continuing to stir until a desired PAA contact time was achieved. The second scenario involved first dosing PAA and allowing it to stir for a period prior to subjecting it to UV irradiation.
Three distinct scenarios were performed with respect to testing the combined UV and PAA disinfection processes: UV prior to PAA (UV→PAA), PAA prior to UV (PAA→UV), simultaneous UV and PAA (UV+PAA). For the UV→PAA tests, UV fluences of 10, 15, and 20 mJ/cm^2 were applied prior to PAA addition, and PAA CTs ranged from 5-25 mg·min/L. Each of FIGS. 14-26 illustrates the results for viable E. coli as a function of PAA CT exposure with different levels of UV fluence applied, prior to PAA treatment.

total coliform = conditions: cited from earlier work
[4] = low UV fluence (13 mJ/cm^2), PAA added before or after UV irradiation; cited from earlier work

Compound: CC(=O)OO [PAA, peracetic acid]
- Decay (k, 1/min) ([1]; sample Sept. 22 - AM): 0.063 min⁻¹
- Demand (D, mg/L) ([1]; sample Sept. 22 - AM): 3.58 mg/L
- Decay (k, 1/min) ([1]; sample Sept. 22 - PM): 0.057 min⁻¹
- Demand (D, mg/L) ([1]; sample Sept. 22 - PM): 2.60 mg/L
- Decay (k, 1/min) ([1]; sample Sept. 24 - AM): 0.056 min⁻¹
- Demand (D, mg/L) ([1]; sample Sept. 24 - AM): 3.50 mg/L
- Decay (k, 1/min) ([1]; sample Sept. 24 - PM): 0.058 min⁻¹
- Demand (D, mg/L) ([1]; sample Sept. 24 - PM): 2.91 mg/L
- decay rates ([1]; all samples): ca. 0.060 l/min
- PAA demand ([1]; samples collected in the afternoon): ca. 2.75 mg/L
- PAA demand ([1]; samples collected in the morning): ca. 3.5 mg/L
- PAA CT dose required to meet disinfection target (E. coli [2]; target 63 MPN/100 mL (half the 30-day geomean permit), model from all data): 49.2 mg·min/L
- PAA CT dose required to meet disinfection target (E. coli [2]; target 244 MPN/100 mL (half the daily maximum permit), model from poorest inactivation data): 36.0 mg·min/L
- attainment of E. coli disinfection targets (E. coli [3]; PAA prior to UV (PAA→UV), PAA CT 10-23 mg·min/L, UV 10, 15, 20 mJ/cm^2): did NOT always result in the geometric mean or maximum disinfection targets being met
- attainment of E. coli disinfection targets (E. coli [3]; UV prior to PAA (UV→PAA), UV 10, 15, 20 mJ/cm^2, PAA CT 5-25 mg·min/L): both the maximum and geometric mean disinfection targets being met for at least one combination of fluence and CT; also recorded: consistently met disinfection targets
- attainment of E. coli disinfection targets (E. coli [3]; simultaneous UV+PAA, UV 10, 15, 20 mJ/cm^2, PAA CT 15-30 mg·min/L): could not achieve the geomean or maximum disinfection targets
- inactivation of total coliform (total coliform; PAA 2 mg/L applied immediately before UV fluence of 192 mJ/cm^2): over 4 log
- attainment of target disinfection levels (total coliform; PAA concentration between 2 and 8 mg/L, alone): unable to reach the target disinfection levels
- synergistic benefit of PAA combined with UV [4]: no synergistic benefit observed

Reference: US10947129B2, “Fluid disinfection with ultraviolet radiation and a chemical disinfectant” (Trojan Technologies, priority 2015, dated 2021)
